Experimental data from patent publication US6737383B1, “Herbicidal oxadiazolidines” (priority 1999, dated 2004).

Legend:
[1] = system: pigweed; assay: Test B pre/postemergence pigweed; assay type: in vivo, Amaranthus retroflexus
Method in brief: (§1)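 Test chemicals in a non-phytotoxic solvent mixture with surfactant were sprayed preemergence onto planted seeds and postemergence onto plants 2 to 18 cm tall (1- to 4-leaf stage). After twelve to sixteen days in a greenhouse, injury was visually rated against untreated controls from 0 (no effect) to 10 (complete control).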

[2] = system: giant foxtail; assay: Test B pre/postemergence giant foxtail; assay type: in vivo, Setaria faberii
Method in brief: as §1

[3] = system: rape; assay: Test B pre/postemergence rape; assay type: in vivo, Brassica napus
Method in brief: as §1

[4] = system: morningglory; assay: Test B pre/postemergence morningglory; assay type: in vivo, Ipomoea hederacea
Method in brief: as §1

[5] = Postemergence, Rate 62 g/ha, scale 0 to 10, 0 is no effect, 10 is complete control
[6] = Postemergence, Rate 250 g/ha, scale 0 to 10, 0 no effect, 10 complete control
[7] = Preemergence, Rate 62 g/ha, scale 0 to 10 (0 no effect, 10 complete control)
[8] = Preemergence, Rate 125 g/ha, scale 0 to 10 (0 no effect, 10 complete control)
[9] = Preemergence, Rate 250 g/ha, scale of 0 to 10 where 0 is no effect and 10 is complete control
[10] = Preemergence, Rate 500 g/ha, scale 0 (no effect) to 10 (complete control)
[11] = Rate 125 g/ha, Postemergence, scale 0 to 10, 0 no effect, 10 complete control
[12] = Rate 500 g/ha, Postemergence, scale 0 to 10, 0 no effect, 10 complete control
[13] = Postemergence, Rate 250 g/ha, scale 0 to 10
[14] = Preemergence, Rate 62 g/ha, scale of 0 to 10 where 0 is no effect and 10 is complete control
[15] = Preemergence, Rate 125 g/ha, scale of 0 to 10 where 0 is no effect and 10 is complete control
[16] = Preemergence, Rate 250 g/ha, scale 0 to 10, 0 is no effect, 10 is complete control
[17] = Preemergence, Rate 500 g/ha, scale 0 to 10, 0 is no effect, 10 is complete control
[18] = Rate 62 g/ha, Postemergence, scale 0 to 10 (0 no effect, 10 complete control)
[19] = Rate 125 g/ha, Postemergence, scale 0 to 10, 0 is no effect, 10 is complete control
[20] = Postemergence, Rate 500 g/ha, scale of 0 to 10 where 0 is no effect and 10 is complete control
[21] = Preemergence, Rate 500 g/ha, scale of 0 to 10 where 0 is no effect and 10 is complete control
[22] = Rate 125 g/ha, Postemergence, scale of 0 to 10 where 0 is no effect and 10 is complete control
[23] = Rate 125 g/ha, Preemergence, scale of 0 to 10 where 0 is no effect and 10 is complete control
[24] = Rate 250 g/ha, Postemergence, scale of 0 to 10 where 0 is no effect and 10 is complete control
[25] = Postemergence, Rate 125 g/ha, scale of 0 to 10 where 0 is no effect and 10 is complete control
[26] = Postemergence, Rate 250 g/ha, scale of 0 to 10, 0 is no effect, 10 is complete control
[27] = Preemergence, Rate 250 g/ha, scale 0 to 10 (0 no effect, 10 complete control)
[28] = Preemergence, Rate 125 g/ha, 0 is no effect, 10 is complete control
[29] = Preemergence, Rate 500 g/ha, scale 0 to 10 (0 no effect, 10 complete control)
[30] = Rate 62 g/ha, Postemergence, scale of 0 to 10 where 0 is no effect and 10 is complete control
[31] = Rate 250 g/ha, Postemergence, scale 0 to 10, 0 is no effect, 10 is complete control
[32] = Rate 500 g/ha, Postemergence, scale 0 to 10
[33] = Postemergence, Rate 125 g/ha, scale 0 to 10, 0 is no effect, 10 is complete control

## COc1cccc(C)c1-n1c(=O)on(C(=O)N(c2ccccc2)C(C)C)c1=O [Compound 73]
[1]; [5]
  Redroot pigweed plant response rating: 0
[1]; [6]
  Redroot pigweed plant response rating: 0
[1]; [7]
  Redroot pigweed plant response rating: 0
[1]; [8]
  Plant response rating, Redroot pigweed: 0
[1]; [9]
  Plant response rating, Redroot pigweed: 0
[1]; [10]
  Redroot pigweed plant response rating: 0
[1]; [11]
  Redroot pigweed plant response rating: 0
[1]; [12]
  Redroot pigweed plant response rating: 0
[2]; [5]
  Giant foxtail plant response rating: 0
[2]; [6]
  Giant foxtail plant response rating: 2
[2]; [7]
  Giant foxtail plant response rating: 2
[2]; [8]
  Plant response rating, Giant foxtail: 7
[2]; [9]
  Plant response rating, Giant foxtail: 9
[2]; [10]
  Giant foxtail plant response rating: 10
[2]; [11]
  Giant foxtail plant response rating: 0
[2]; [12]
  Giant foxtail plant response rating: 4
[3]; [5]
  Rape plant response rating: 0
[3]; [6]
  Rape plant response rating: 0
[3]; [7]
  Rape plant response rating: 0
[3]; [8]
  Plant response rating, Rape: 0
[3]; [9]
  Plant response rating, Rape: 0
[3]; [10]
  Rape plant response rating: 0
[3]; [11]
  Rape plant response rating: 0
[4]; [5]
  Morningglory plant response rating: 3
[4]; [6]
  Morningglory plant response rating: 4
[4]; [7]
  Morningglory plant response rating: 0
[4]; [8]
  Plant response rating, Morningglory: 0
[4]; [9]
  Plant response rating, Morningglory: 0
[4]; [10]
  Morningglory plant response rating: 0
[4]; [11]
  Morningglory plant response rating: 3
[4]; [12]
  Morningglory plant response rating: 4

## CC[Si](C)(C)Cn1c(=O)on(C(=O)N(c2ccc(Cl)cc2)C(C)C)c1=O [Compound 460]
[1]; [13]
  Redroot pigweed plant response rating: 1
[1]; [14]
  Plant response rating, Redroot pigweed: 0
[1]; [15]
  Plant response rating, Redroot pigweed: 0
[1]; [16]
  Redroot pigweed plant response rating: 0
[1]; [17]
  Redroot pigweed plant response rating: 0
[1]; [18]
  Redroot pigweed plant response rating: 0
[1]; [19]
  Redroot pigweed plant response rating: 0
[2]; [13]
  Giant foxtail plant response rating: 0
[2]; [20]
  Giant foxtail plant response rating: 1
[2]; [14]
  Plant response rating, Giant foxtail: 0
[2]; [15]
  Plant response rating, Giant foxtail: 6
[2]; [16]
  Giant foxtail plant response rating: 8
[2]; [17]
  Giant foxtail plant response rating: 9
[2]; [18]
  Giant foxtail plant response rating: 0
[2]; [19]
  Giant foxtail plant response rating: 0
[3]; [13]
  Rape plant response rating: 0
[3]; [14]
  Plant response rating, Rape: 0
[3]; [15]
  Plant response rating, Rape: 0
[3]; [16]
  Rape plant response rating: 0
[3]; [17]
  Rape plant response rating: 0
[3]; [18]
  Rape plant response rating: 0
[3]; [19]
  Rape plant response rating: 0
[4]; [13]
  Morningglory plant response rating: 7
[4]; [14]
  Plant response rating, Morningglory: 0
[4]; [15]
  Plant response rating, Morningglory: 0
[4]; [16]
  Morningglory plant response rating: 0
[4]; [17]
  Morningglory plant response rating: 0
[4]; [18]
  Morningglory plant response rating: 7
[4]; [19]
  Morningglory plant response rating: 7

## Cc1ccccc1-n1c(=O)on(C(=O)N(c2ccc(Oc3ccccc3)cc2)C(C)C)c1=O [Compound 268]
[1]; [14]
  Redroot pigweed plant response rating: 0
[1]; [9]
  Redroot pigweed plant response rating: 0
[1]; [21]
  Plant response rating, Redroot pigweed: 0
[1]; [22]
  Redroot pigweed plant response rating: 0
[1]; [23]
  Redroot pigweed plant response rating: 0
[1]; [24]
  Plant response rating, Redroot pigweed: 0
[2]; [14]
  Giant foxtail plant response rating: 0
[2]; [9]
  Giant foxtail plant response rating: 0
[2]; [21]
  Plant response rating, Giant foxtail: 0
[2]; [22]
  Giant foxtail plant response rating: 0
[2]; [23]
  Giant foxtail plant response rating: 0
[2]; [24]
  Plant response rating, Giant foxtail: 0
[2]; [12]
  Giant foxtail plant response rating: 0
[3]; [14]
  Rape plant response rating: 0
[3]; [9]
  Rape plant response rating: 0
[3]; [21]
  Plant response rating, Rape: 0
[3]; [22]
  Rape plant response rating: 0
[3]; [23]
  Rape plant response rating: 0
[3]; [24]
  Plant response rating, Rape: 0
[4]; [14]
  Morningglory plant response rating: 0
[4]; [9]
  Morningglory plant response rating: 0
[4]; [21]
  Plant response rating, Morningglory: 0
[4]; [22]
  Morningglory plant response rating: 2
[4]; [23]
  Morningglory plant response rating: 0
[4]; [24]
  Plant response rating, Morningglory: 2
[4]; [12]
  Morningglory plant response rating: 7

## CC(C)N(C(=O)n1oc(=O)n(CCC(=O)N(C)C)c1=O)c1ccc(F)cc1 [Compound 638]
[1]; [5]
  Plant response rating, Redroot pigweed: 0
[1]; [25]
  Plant response rating, Redroot pigweed: 0
[1]; [26]
  Redroot pigweed plant response rating: 0
[1]; [14]
  Redroot pigweed plant response rating: 7
[1]; [15]
  Redroot pigweed plant response rating: 10
[1]; [27]
  Plant response rating, Redroot pigweed: 10
[1]; [21]
  Plant response rating, Redroot pigweed: 10
[2]; [5]
  Plant response rating, Giant foxtail: 5
[2]; [25]
  Plant response rating, Giant foxtail: 6
[2]; [26]
  Giant foxtail plant response rating: 8
[2]; [20]
  Plant response rating, Giant foxtail: 8
[2]; [14]
  Giant foxtail plant response rating: 10
[2]; [15]
  Giant foxtail plant response rating: 10
[2]; [27]
  Plant response rating, Giant foxtail: 10
[2]; [21]
  Plant response rating, Giant foxtail: 10
[3]; [5]
  Plant response rating, Rape: 0
[3]; [25]
  Plant response rating, Rape: 0
[3]; [26]
  Rape plant response rating: 0
[3]; [20]
  Plant response rating, Rape: 0
[3]; [14]
  Rape plant response rating: 0
[3]; [15]
  Rape plant response rating: 5
[3]; [27]
  Plant response rating, Rape: 8
[3]; [21]
  Plant response rating, Rape: 10
[4]; [5]
  Plant response rating, Morningglory: 0
[4]; [25]
  Plant response rating, Morningglory: 2
[4]; [26]
  Morningglory plant response rating: 3
[4]; [20]
  Plant response rating, Morningglory: 7
[4]; [14]
  Morningglory plant response rating: 0
[4]; [15]
  Morningglory plant response rating: 0
[4]; [27]
  Plant response rating, Morningglory: 2
[4]; [21]
  Plant response rating, Morningglory: 7

## Cc1ccccc1-n1c(=O)on(C(=O)N(c2cccc(F)c2F)C(C)C)c1=O [Compound 171]
[1]; [25]
  Redroot pigweed plant response rating: 0
[1]; [14]
  Redroot pigweed plant response rating: 0
[1]; [28]
  Redroot pigweed plant response rating (0 to 10 scale): 0
[1]; [16]
  Redroot pigweed plant response rating: 5
[1]; [29]
  Redroot pigweed plant response rating: 6
[1]; [30]
  Redroot pigweed plant response rating: 0
[1]; [31]
  Plant response rating, Redroot pigweed: 0
[1]; [32]
  Redroot pigweed plant response rating: 5
[2]; [25]
  Giant foxtail plant response rating: 0
[2]; [14]
  Giant foxtail plant response rating: 5
[2]; [28]
  Giant foxtail plant response rating (0 to 10 scale): 7
[2]; [16]
  Giant foxtail plant response rating: 10
[2]; [29]
  Giant foxtail plant response rating: 10
[2]; [30]
  Giant foxtail plant response rating: 0
[2]; [31]
  Plant response rating, Giant foxtail: 0
[2]; [32]
  Giant foxtail plant response rating: 0
[3]; [25]
  Rape plant response rating: 0
[3]; [14]
  Rape plant response rating: 0
[3]; [28]
  Rape plant response rating (0 to 10 scale): 0
[3]; [29]
  Rape plant response rating: 4
[3]; [30]
  Rape plant response rating: 0
[3]; [31]
  Plant response rating, Rape: 0
[3]; [32]
  Rape plant response rating: 0
[4]; [25]
  Morningglory plant response rating: 1
[4]; [14]
  Morningglory plant response rating: 0
[4]; [28]
  Morningglory plant response rating (0 to 10 scale): 0
[4]; [16]
  Morningglory plant response rating: 0
[4]; [29]
  Morningglory plant response rating: 0
[4]; [30]
  Morningglory plant response rating: 0
[4]; [31]
  Plant response rating, Morningglory: 2
[4]; [32]
  Morningglory plant response rating: 2

## CC(C)N(C(=O)n1oc(=O)n(C2CC3CCC2C3)c1=O)c1ccc(F)cc1 (stereo not drawn) [Compound 327]
[1]; [33]
  Plant response rating, Redroot pigweed: 5
[1]; [14]
  Redroot pigweed plant response rating: 0
[1]; Preemergence, Rate 125 g/ha
  Redroot pigweed plant response rating (0 to 10 scale): 0
[1]; [9]
  Redroot pigweed plant response rating: 1
[1]; [21]
  Redroot pigweed plant response rating: 3
[1]; [18]
  Redroot pigweed plant response rating: 4
[1]; [24]
  Plant response rating, Redroot pigweed: 6
[1]; [12]
  Plant response rating, Redroot pigweed: 7
[2]; [33]
  Plant response rating, Giant foxtail: 0
[2]; [14]
  Giant foxtail plant response rating: 7
[2]; Preemergence, Rate 125 g/ha
  Giant foxtail plant response rating (0 to 10 scale): 8
[2]; [9]
  Giant foxtail plant response rating: 9
[2]; [21]
  Giant foxtail plant response rating: 9
[2]; [18]
  Giant foxtail plant response rating: 0
[2]; [24]
  Plant response rating, Giant foxtail: 0
[2]; [12]
  Plant response rating, Giant foxtail: 0
[3]; [33]
  Plant response rating, Rape: 0
[3]; [14]
  Rape plant response rating: 0
[3]; Preemergence, Rate 125 g/ha
  Rape plant response rating (0 to 10 scale): 0
[3]; [9]
  Rape plant response rating: 0
[3]; [21]
  Rape plant response rating: 2
[3]; [18]
  Rape plant response rating: 0
[3]; [24]
  Plant response rating, Rape: 2
[3]; [12]
  Plant response rating, Rape: 2
[4]; [33]
  Plant response rating, Morningglory: 8
[4]; [14]
  Morningglory plant response rating: 0
[4]; Preemergence, Rate 125 g/ha
  Morningglory plant response rating (0 to 10 scale): 0
[4]; [9]
  Morningglory plant response rating: 0
[4]; [21]
  Morningglory plant response rating: 0
[4]; [18]
  Morningglory plant response rating: 7
[4]; [24]
  Plant response rating, Morningglory: 8
[4]; [12]
  Plant response rating, Morningglory: 10
